Publication PMC10343279, “The Cytotoxic Activity of Dammarane-Type Triterpenoids Isolated from the Stem Bark of Aglaia cucullata (Meliaceae)” (Molecules, 2023)
pIC50: −log10 of the molar value. Read-outs that look alike come from different tables or passages of the source.

How the values were obtained:
Assay type in all cases: cell-based
[1] = system: MCF-7 breast cancer cell line; test: PrestoBlue cytotoxicity assay against MCF-7 breast cancer cells; conditions: MCF-7, PrestoBlue, 24 h incubation, run twice and averaged; for pIC50: read-out: IC50 for MCF-7; for IC50: read-out: IC50 for MCF-7 (μg/mL)
Method: (§1) A normal cell (CV-1 kidney fibroblast cells) and two cancer cell lines (MCF-7 breast cancer and B16-F10 melanoma cells) were used to test the cytotoxic activities of compounds 1–7. In this experiment, two wavelengths (570 and 600 nm) were used because the measured cells were live cells so, to obtain the value/number of live cells, measurements were carried out at two wavelengths, namely before the reaction (blue) and after the reaction (pink) to produce a corrected absorbance value, which was interpreted as the number live cells after treatment. The results arising from the experiments, along with IC50 calculation graphs and cell morphology at each sample concentration, are presented in Figures S38–S58.
(§2) The PrestoBlue assay was utilized to conduct the cytotoxic bioassay. Additionally, Presto Blue reagent from Thermo Fisher Scientific, Uppsala, Sweden, was used to measure cell viability, which allowed for rapid evaluation of various resazurin-based cells. The rate of proliferation of the samples was then determined quantitatively through live-cell reduction capabilities. According to the findings, healthy cells kept a reduced habitat in their cytoplasm. By reducing resorufin (purple) with absorbance or fluorescence outputs, resazurin reduction (blue) acted as a viability indicator. The conversion correlated with the number of cells that were metabolically active. MCF-7, B16-F10, and CV-1 cell lines were cultured until they reached 70% confluence, and then they were removed, counted with a hemocytometer, and diluted with complete culture RPMI media. A total of 170,000 cells per well in 96-well plates with the samples were used. After an overnight growth period, the samples were treated with compounds 1–7 at escalating concentrations ([…]) in PBS, with 2% DMSO as the co-solvent. Additionally, cisplatin served as the positive control, and all samples were incubated for 24 h at 37° C with 5% CO2. Following incubation, the medium was immediately changed to 10 μL of the PrestoBlue reagent in 90 μL of the RPMI medium. As resorufin began to form, the color of the plates changed from blue to purple after being incubated for another one to two hours. Using a microplate reader to measure absorbance at 570 nm and 600 nm, the concentration required to inhibit growth by 50% was calculated as the IC50 value. […] The results of each test and analysis were averaged after being run twice.

[2] = system: B16-F10 melanoma cell line; test: PrestoBlue cytotoxicity assay against B16-F10 melanoma cells; conditions: 24 h incubation, run twice and averaged; for pIC50: read-out: IC50 for B16-F10; for IC50: read-out: IC50 for B16-F10 (μg/mL)
Method: as §1, §2

[3] = system: CV-1 normal kidney fibroblast cell line; test: cells; conditions: for pIC50: read-out: IC50 for CV-1; for IC50: read-out: IC50 for CV-1 (μg/mL)
Method: as §1, §2

[4] = Fibroblast, CV-1 normal cells, PrestoBlue, 24 h incubation, run twice and averaged
[5] = CV-1 normal cells, PrestoBlue, 24 h incubation, run twice and averaged

SMILES | pIC50 ([1]; Homo sapiens, MCF7) | IC50 ([1]; Homo sapiens, MCF7) | pIC50 ([2]; Mus musculus) | IC50 ([2]; Mus musculus) | pIC50 [3, 4] | IC50 [3, 4] | cell death based on morphological observation [3] | IC50 for MCF-7 [1] | pIC50 [1] | IC50 for B16-F10 [2] | pIC50 [2] | IC50 for CV-1 [3, 5] | pIC50 [3, 5]
C=C(CCC=C(C)C)C1CC[C@]2(C)C1CC[C@@H]1[C@@]3(C)CCC(=O)C(C)(C)C3CC[C@]12C (stereo partly drawn) [Compound 2, dammaradienone] | 3.88 | 56.1 µg/mL | 3.89 | 54.8 µg/mL | 3.71 | 82.8 µg/mL |  |  |  |  |  |  | 
CC(=O)O[C@@H]1CC[C@@]2(C)C(CC[C@]3(C)C2CCC2C([C@]4(C)CC[C@@H](C(C)(C)O)O4)CC[C@]23C)C1(C)C (stereo partly drawn) [Compound 7, 3α-acetyl-20S,24S-epoxy-3α,25-dihydroxydammarane] | 3.71 | 97.9 µg/mL | 3.80 | 79.4 µg/mL | < 3.52 | > 300 µg/mL | no cell death at all concentration levels |  |  |  |  |  | 
CC(C)(O)[C@@H]1CC[C@@](C)(C2CC[C@]3(C)C2CCC2[C@@]4(C)CC[C@@H](O)C(C)(C)C4CC[C@]23C)O1 (stereo partly drawn) [Compound 1, 20S,24S-epoxy-3α,25-dihydroxy-dammarane] | 3.85 | 65.5 µg/mL | 4.01 | 44.8 µg/mL | 3.76 | 80.1 µg/mL |  |  |  |  |  |  | 
CC(=O)O[C@@H]1CC[C@@]2(C)C(CC[C@]3(C)C2CCC2C([C@]4(C)CCC(=O)O4)CC[C@]23C)C1(C)C (stereo partly drawn) [Compound 6, 3α-acetyl-cabraleahydroxy lactone] | 3.56 | 126 µg/mL | 3.56 | 126 µg/mL | 3.55 | 131 µg/mL |  |  |  |  |  |  | 
CC(C)=CCC[C@](C)(O)C1CC[C@]2(C)C1CC[C@@H]1[C@@]3(C)CCC(=O)C(C)(C)C3CC[C@]12C (stereo partly drawn) [Compound 3, 20S-hydroxy-dammar-24-en-3-on] | < 3.52 | 142 µg/mL | 3.96 | 49.1 µg/mL | < 3.52 | > 300 µg/mL | no cell death at all concentration levels |  |  |  |  |  | 
COC1CC[C@@](C)(C2CC[C@]3(C)C2CCC2[C@@]4(C)CCC(=O)C(C)(C)C4CC[C@]23C)O1 (stereo partly drawn) [Compound 5, (20S,24RS)-23,24-epoxy-24-methoxy-25,26,27-tris-nor dammar-3-one] | 3.88 | 57.3 µg/mL | 3.98 | 45.4 µg/mL | < 3.52 | > 300 µg/mL | no cell death at all concentration levels |  |  |  |  |  | 
N.N.[Cl][Pt][Cl] [Cisplatin, cisplatin, reference compound] |  |  |  |  |  |  |  | 53.00 µg/mL | 3.75 | 43.00 µg/mL | 3.85 | 43.00 µg/mL | 3.85
C=C(C)[C@@H]1CC[C@]2(C)[C@H](CC[C@@H]3[C@@H]([C@]4(C)CC[C@@H](C(C)(C)O)O4)CC[C@]32C)[C@@]1(C)CCC(=O)O [Compound 4, eichlerianic acid] | < 3.52 | > 300 µg/mL | < 3.52 | 275 µg/mL | 3.54 | 137 µg/mL |  |  |  |  |  |  | 
